Results reported in PubChem BioAssay (NCI).
Where “and” joins values, the source holds several entries; their conditions need not be identical. Equal values may be shown once.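 Dose response: 5 concentrations. Exposure: 48 h. Format: 96-well plates. Endpoint: linear interpolation; highest concentration if not reached. GI50 = concentration required for 50% inhibition of growth. The concentration for full growth arrest is given as TGI.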

Columns and labels:
Assay in all cases: NCI-60 cell line screen, 48 h
[1] = tested on: HT29 colon
[2] = tested on: K-562 leukemia
[3] = tested on: LOX IMVI melanoma
[4] = tested on: NCI-H23 lung
[5] = tested on: RPMI-8226 leukemia
[6] = tested on: RXF 393 renal
[7] = tested on: SF-539 CNS
[8] = tested on: SK-MEL-5 melanoma
[9] = tested on: SW-620 colon
[10] = tested on: T-47D breast

| Compound | GI50 [1] [µM] | TGI [1] | GI50 [2] [µM] | TGI [2] [µM] | GI50 [3] [µM] | TGI [3] [µM] | GI50 [4] [µM] | TGI [4] [µM] | GI50 [5] [µM] | TGI [5] [µM] | GI50 [6] [µM] | GI50 [7] [µM] | TGI [7] | GI50 [8] [µM] | TGI [8] | GI50 [9] [µM] | TGI [9] | GI50 [10] [µM] | TGI [10] | TGI [6] |
| --- | --- | --- | --- | --- | --- | --- | --- | --- | --- | --- | --- | --- | --- | --- | --- | --- | --- | --- | --- | --- |
| C=C(CN1CCN(c2cccc(C(F)(F)F)c2)CC1)c1ccc(C(=O)Nc2ccccc2N)cc1 | 1.46 | > 50 µM | 0.185 | 8.27 | 0.56 | 6.25 | 3.72 | > 32.9 | 0.322 | 2.49 | 1.62 | 0.543 | 2.82 µM | 0.568 | 6.72 µM | 1.28 | 15.9 µM | 13.2 | > 50 µM |  |
| O=c1cccc(C#Cc2ccccc2)o1 | 14.6 | > 100 µM | 40.4 | > 100 | 7.89 | 30.1 | 4.42 | 12.2 | 0.698 | 12.1 | 6.27 | 3.72 | 27.6 µM | 2.51 | 9.59 µM | 4.85 | 43.3 µM | 8.67 | 46 µM | 61.6 µM |
| COc1cc2cc(Oc3ccc(NC(=O)Nc4ccccc4)cc3)c(C)nc2cc1OCCN1CCCCC1 | 3.32 | 9.35 µM | 1.05 | 3.7 | 5.38 | 10.1 | 6.4 | 13.7 | 3.52 | 10.8 | 4.42 | 5.46 | 10.3 µM | 5.47 | 10.1 µM | 6.09 | 11.9 µM | 6.12 | 14.5 µM | 8.99 µM |
| NCCNCC(O)CO (stereo not drawn) |  | > 100 µM |  | > 100 |  | > 100 |  | > 100 |  | > 100 |  |  | > 100 µM |  | > 100 µM |  | > 100 µM |  | > 100 µM | > 100 µM |
| Cn1ccc(=Nc2ccc(NC(=O)c3ccc(N=c4ccn(C)c5ccc([N+](=O)[O-])cc45)cc3)cc2)cc1 | 7.54 | > 100 µM | 6.75 | > 100 | 5.37 | > 100 | 43.9 | > 100 | 3.54 | > 100 | 21.4 | 6.21 | 73.2 µM | 20.3 | > 100 µM | 8.6 | > 100 µM | 5.27 | > 100 µM | 44.6 µM |
| COc1cc(/C=C/C(=O)c2cc(F)c(Cl)cc2Cl)cc(OC)c1OC | 15.2 | 45 µM | 11.4 | 27.7 | 25.1 | 91.2 | 34.2 | > 100 | 15.2 | 52.9 | 17.2 | 28.1 | > 100 µM | 49.6 | > 100 µM | 31.9 | > 100 µM | 41.2 | > 100 µM | 62.2 µM |
| C#CCN1CCN(C(=S)N/N=C(\C)c2ccccn2)CC1 | 0.0028 | 3.74 µM and 8.33 µM | 0.00334 | 14 | 1.6 | 6.8 | 0.00567 | 3.99 | 0.00287 |  | 3.95 |  | 5.78 µM and 4.56 µM |  | 5.05 µM and 2.86 µM |  | 7.3 µM and 4.27 µM |  | 3.6 µM and 4.06 µM | 5.46 µM and 3.48 µM |
| CCOC(=O)/C=C1\SC(=Nc2ccc(C#N)cc2)N(CCN2C(=O)/C(=C/C(=O)OCC)SC2=Nc2ccc(C#N)cc2)C1=O | 1.11 | 10.1 µM | 0.786 | > 100 | 0.585 | 1.28 | 3.52 | 18.1 | 0.415 | 2.99 | 2.61 | 3.53 | 12.8 µM | 5.43 | 18.9 µM | 0.416 | 2.63 µM | 2.37 | 41.2 µM | 9.39 µM |
| N#C/C(=C/C=C(\Cl)c1ccc(Cl)cc1)C(N)=O | 3.38 | > 36.5 µM | 1.47 | > 100 | 0.976 | 6.91 | 2.4 | 8.83 | 2.14 | > 100 | 3.75 | 3.19 | 9.27 µM | 4.56 | 15.1 µM | 2.1 | 4.53 µM | 3.26 | 26.4 µM | > 57.6 µM |
| COC(=O)[C@]12CC[C@@H](C)[C@H](C)[C@@H]1C1=CC[C@@H]3[C@@]4(C)C(C=O)=C[C@@](C)(COC(C)=O)[C@@H]4[C@H](O)C[C@@]3(C)[C@]1(C)CC2 | 1.92 | 3.97 µM | 3.57 | 9.77 | 1.57 | 2.91 | 2.76 | 7.35 | 1.4 | 4.55 | 1.56 | 1.93 | 4.14 µM | 1.66 | 3.19 µM | 2.66 | 8.21 µM | 2.75 | 14.2 µM | 3.03 µM |
| CC(C)(C)OC(=O)NCCCCCCCCn1c2c(c3ccccc3c1=O)C(=O)c1ccccc1-2 | > 50 | > 50 µM | > 50 | > 50 | > 32 | > 50 | 20.4 | > 50 | > 50 | > 50 | 8.49 | 9.64 | 29.6 µM | > 40 | > 50 µM | > 50 | > 50 µM | > 48 | > 50 µM | 24.5 µM |
| COc1ccc(C2NCCc3c2[nH]c2ccccc32)cc1CN1CCN(c2ccc(F)cc2)CC1 (stereo not drawn) | 1.7 | 3.49 µM | 1.73 | 4.09 | 1.64 | 3.09 | 4.77 | 17 | 2.47 | 5.65 | 1.37 | 1.88 | 3.42 µM | 1.63 | 3.01 µM | 1.74 | 3.33 µM | 1.88 | 3.94 µM | 2.94 µM |
| COc1ccc2cc(C(=O)/C=C/c3cccc(Cl)c3Cl)ccc2c1 | 7.33 | > 64.2 µM | 4.93 | > 100 | 0.651 | > 24.9 | 6.42 | 29.4 | 5.56 | > 46.8 | 2.79 | 2.68 | 12 µM |  | 4.3 µM | 1.32 | > 100 µM | > 59 | > 100 µM | 12.4 µM |
